Laboratory results reported in US10759843B2, “Method and pharmaceutical composition for use in the treatment of cancer” (priority 2012, dated 2020).
“Also recorded” adds a separate entry of the source. No end group written: not given here.

What was measured:
Acute T cell leukemia = assay: PCD induction in primary cancer cells; assay type: cell-based
Mantle cell lymphoma = assay: PCD induction in primary cancer cells; assay type: cell-based
[1] = system: Chronic Lymphocytic Leukemia; assay: PCD induction in primary cancer cells; assay type: cell-based
cancer cell lines = assay: PCD induction in cancer cell lines (whole panel of Table 1); assay type: cell-based; settings: cancer cell lines (Table 1)
Protocol: (§1) We used Annexin V-FITC (BD Biosciences) for the assessment of phosphatidylserine (PS) exposure. Data analysis was carried out in a FACSCanto II (BD Biosciences) on the total cell population (10,000 cells). Data were analyzed using FlowJo software (TreeStar).

Glioblastoma = assay: PCD induction in primary cancer cells; assay type: cell-based
Glioma = assay: PCD induction in primary cancer cells; assay type: cell-based
[2] = system: B cells isolated from CLL patients; assay: PCD (phosphatidylserine exposure, Annexin-V-FITC, flow cytometry) in B cells from CLL patients; assay type: cell-based, human
Source text: (§2) After authorized consent forms fresh blood samples will be collected from CLL patients diagnosed according to classical morphological and immunophenotypic criteria at Pitié-Salpêtrière Hospital (Service d'Hématologie Biologique). Normal B lymphocytes will be obtained from EFS (Etablisement Français du Sang). The Institutional Ethics Committee at Pitie-Salpetriere Hospital approved the present study. Mononuclear cells were purified from blood samples using a standard Ficoll-Hypaque gradient, and B cells were positively or negatively selected by magnetic beads coupled to anti-CD19 monoclonal antibody (positive selection) or to anti-CD16, CD3, and CD14 monoclonal antibodies (negative depletion) (Miltenyi Biotech). No changes were found in the cell death response of positively or negatively selected cells. Purified B-lymphocytes were cultured in complete medium (RPMI 1640 medium supplemented with 10% fetal calf serum, 2 mM L-glutamine, and 100 U/ml penicillin-streptomycin). Unless specified, reagents were from Sigma-Aldrich.
To induce cell death B-lymphocytes were cultured 1 h with the TSP-1 derived peptide 4N1K (300 μM; sequence KRFYVVMWKK, SEQ ID NO:1), the negative control peptide 4NGG (300 μM; sequence KRFYGGMWKK, SEQ ID NO:2), the newly developed peptide PKHB1 (150 μM; sequence (D)K-R-F-Y-[…]-M-W-(D)K) (formula I) or an anti-CD47 mAb (in soluble conditions or in immobilized precoated plates; 5 μg/ml; clone B6H12). Alternatively, B-cells were pre-treated for 30 min before the induction of cell death with the calcium chelator BAPTA-AM (20 μM), the caspase-inhibitor Z-VAD.fmk (50 μM).
as §1

[3] = system: Lymphoplasmacytic lymphoma; assay: PCD induction in primary cancer cells; assay type: cell-based
Bladder carcinoma = assay: PCD induction in primary cancer cells; assay type: cell-based
Breast carcinoma = assay: PCD induction in primary cancer cells; assay type: cell-based
Prostate tumor cells = assay: PCD induction in primary cancer cells; assay type: cell-based
Colon carcinoma = assay: PCD induction in primary cancer cells; assay type: cell-based
Marginal B cell lymphoma = assay: PCD induction in primary cancer cells; assay type: cell-based
primary cancer cells = assay: PCD induction in primary cancer cells (whole panel of Table 2); assay type: cell-based; settings: primary cancer cells (Table 2)
Ovarian carcinoma = assay: PCD induction in primary cancer cells; assay type: cell-based
RAJI = assay: PCD induction in cancer cell lines, Annexin V labeling; assay type: cell-based; settings: RAJI (Burkitt's lymphoma), 400 μM 4N1K, 1 h
Protocol: as §1

MEC-1 = assay: as above; assay type: cell-based; settings: MEC-1 (Chronic Lymphocytic Leukemia), 400 μM 4N1K, 1 h
Protocol: as §1

AU-565 = assay: as above; assay type: cell-based; settings: AU-565 (Breast adenocarcinoma), 400 μM 4N1K, 1 h
Protocol: as §1

JURKAT = assay: as above; assay type: cell-based; settings: JURKAT (Acute T cell leukemia), 400 μM 4N1K, 1 h
Protocol: as §1

MCF-7 = assay: as above; assay type: cell-based; settings: MCF-7 (Breast adenocarcinoma), 400 μM 4N1K, 1 h
Protocol: as §1

HBL-100 = assay: as above; assay type: cell-based; settings: HBL-100 (Breast epithelial cells with transformed morphology), 400 μM 4N1K, 1 h
Protocol: as §1

RAMOS = assay: as above; assay type: cell-based; settings: RAMOS (Burkitt's lymphoma), 400 μM 4N1K, 1 h
Protocol: as §1

RPMI 8866 = assay: as above; assay type: cell-based; settings: RPMI 8866 (B lymphocytic cell line), 400 μM 4N1K, 1 h
Protocol: as §1

A549 = assay: as above; assay type: cell-based; settings: A549 (Lung carcinoma), 400 μM 4N1K, 1 h
Protocol: as §1

HELA = assay: as above; assay type: cell-based; settings: HELA (Cervical cancer), 400 μM 4N1K, 1 h
Protocol: as §1

CEM = assay: as above; assay type: cell-based; settings: CEM (Acute lymphoblastic leukemia), 400 μM 4N1K, 1 h
Protocol: as §1

U937 = assay: as above; assay type: cell-based; settings: U937 (Diffuse histiocytic lymphoma), 400 μM 4N1K, 1 h
Protocol: as §1

JM-1 = assay: as above; assay type: cell-based; settings: JM-1 (Immunoblastic B cell lymphoma), 400 μM 4N1K, 1 h
Protocol: as §1

MDA-MB-231 = assay: as above; assay type: cell-based; settings: MDA-MB-231 (Adenocarcinoma), 400 μM 4N1K, 1 h
Protocol: as §1

OV10 = assay: as above; assay type: cell-based; settings: OV10 (Ovarian Carcinoma), 400 μM 4N1K, 1 h
Protocol: as §1

RPMI 8226 = assay: as above; assay type: cell-based; settings: RPMI 8226 (B lymphocytic cell line), 400 μM 4N1K, 1 h
Protocol: as §1

LNCAP = assay: as above; assay type: cell-based; settings: LNCAP (Prostate cancer), 400 μM 4N1K, 1 h
Protocol: as §1

[4] = system: Hairy cell leucemia (HCL); assay: PCD induction in primary cancer cells; assay type: cell-based
[5] = system: B cells from CLL patients; assay: Free Ca2+ mobilization, Fura-2 AM, Till photonics; assay type: cell-based, human; settings: Fura-2 AM (FIG. 4)
Protocol: Cells, adhered in Polylysine coated glass-bottom Petri dishes, were loaded with Fura-2 AM (1 μM/30 min/37° C.). Cells were then excited by wavelengths of 340 and 380 nm and fluorescence emission of several cells was simultaneously recorded at 510 nm at a frequency of 1 Hz using a dual excitation fluorometric imaging system (TILL-Photonics) controlled by TILL-Vision software. Signals were computed into relative ratio units of the fluorescence intensity of the different wavelengths (340/380 nm). Individual fluorescence values were then analyzed with Origin software to normalize the fluorescence with the first value according to the equation (F/F0)−1, where ‘F’ is the fluorescence at specific time point and ‘F0’ is the fluorescence at time 0.

Hepatocellular carcinoma = assay: PCD induction in primary cancer cells; assay type: cell-based
normal B-lymphocytes = assay: PCD (Annexin-V-FITC) in normal B-lymphocytes; assay type: cell-based, human
Source text: as §2, with “Sigma-Aldrich. […]” for “Sigma-Aldrich.”
We used Annexin V-FITC (BD Biosciences) for the assessment of phosphatidylserine (PS) exposure. […] Data were analyzed using FlowJo software (TreeStar).

Follicular lymphoma = assay: PCD induction in primary cancer cells; assay type: cell-based
[6] = system: Diffuse large B cell lymphoma; assay: PCD induction in primary cancer cells; assay type: cell-based

With KRFYVVMWKK [4N1K, K-R-F-Y-V-V-M-W-K-K] the “Cell death induction via CD47” value (Acute T cell leukemia) was “+ (more than 35% of programmed cell death induction via CD47 receptor)”, the “Cell death induction via CD47” value (Mantle cell lymphoma) was “+ (more than 35% of programmed cell death induction via CD47 receptor)” and the “Cell death induction via CD47” value [1] was “+ (more than 35% of programmed cell death induction via CD47 receptor)”. The cell death induction (cancer cell lines) was “more than 35%”, the “Cell death induction via CD47” value (Glioblastoma) was “+ (more than 35% of programmed cell death induction via CD47 receptor)” and the “Cell death induction via CD47” value (Glioma) was “+ (more than 35% of programmed cell death induction via CD47 receptor)”. For the same sequence, the “difference in PCD response between CLL cells with functional and non-functional TP53” value ([2]; 300 μM, 1 h (FIG. 2B)) was “Not significant difference”, the “cell death in CLL cells” value ([2]; 300 μM, 1 h, Annexin-V-FITC, cohort of 14 CLL patients (FIG. 6B)) was “about 45%” and the “difference in PCD between CLL cells treated or not with caspase inhibitor ZVAD” value ([2]; 300 μM, 1 h, z-VAD.fmk 50 μM pre-incubation (FIG. 2A)) was “Not significant difference”. The “effect of pre-treatment with calcium chelator BAPTA-AM on peptide-mediated PCD” value ([2]; BAPTA-AM 20 μM before PCD induction (FIG. 5, FIG. 6D)) was “abrogates”, the “PCD induction in CLL primary cells (in words)” value ([2]; soluble peptide or mAb (FIG. 1)) was “induces caspase-independent PCD” and the “Cell death induction via CD47” value [3] was “+ (more than 35% of programmed cell death induction via CD47 receptor)”. The “Cell death induction via CD47” value (Bladder carcinoma) was “+ (more than 35% of programmed cell death induction via CD47 receptor)”, the “Cell death induction via CD47” value (Breast carcinoma) was “+ (more than 35% of programmed cell death induction via CD47 receptor)” and the “Cell death induction via CD47” value (Prostate tumor cells) was “+ (more than 35% of programmed cell death induction via CD47 receptor)”. The “Cell death induction via CD47” value (Colon carcinoma) was “+ (more than 35% of programmed cell death induction via CD47 receptor)”, the “Cell death induction via CD47” value (Marginal B cell lymphoma) was “+ (more than 35% of programmed cell death induction via CD47 receptor)” and the cell death induction (primary cancer cells) was “more than 35%”. For the same sequence, the “Cell death induction via CD47” value (Ovarian carcinoma) was “+ (more than 35% of programmed cell death induction via CD47 receptor)”, the “Cell death induction via CD47” value (RAJI) was “+ (more than 35% of cell death induction, assessed by Annexin V labeling, after 1 h of stimulation with 400 μM of 4N1K (means of six independent experiments))” and the “Cell death induction via CD47” value (MEC-1) was “+ (more than 35% of cell death induction, assessed by Annexin V labeling, after 1 h of stimulation with 400 μM of 4N1K (means of six independent experiments))”. The “Cell death induction via CD47” value (AU-565) was “+ (more than 35% of cell death induction, assessed by Annexin V labeling, after 1 h of stimulation with 400 μM of 4N1K (means of six independent experiments))”, the “Cell death induction via CD47” value (JURKAT) was “+ (more than 35% of cell death induction, assessed by Annexin V labeling, after 1 h of stimulation with 400 μM of 4N1K (means of six independent experiments))” and the “Cell death induction via CD47” value (MCF-7) was “+ (more than 35% of cell death induction, assessed by Annexin V labeling, after 1 h of stimulation with 400 μM of 4N1K (means of six independent experiments))”. For the same sequence, the “Cell death induction via CD47” value (HBL-100) was “+ (more than 35% of cell death induction, assessed by Annexin V labeling, after 1 h of stimulation with 400 μM of 4N1K (means of six independent experiments))”, the “Cell death induction via CD47” value (RAMOS) was “+ (more than 35% of cell death induction, assessed by Annexin V labeling, after 1 h of stimulation with 400 μM of 4N1K (means of six independent experiments))” and the “Cell death induction via CD47” value (RPMI 8866) was “+ (more than 35% of cell death induction, assessed by Annexin V labeling, after 1 h of stimulation with 400 μM of 4N1K (means of six independent experiments))”. The “Cell death induction via CD47” value (A549) was “+ (more than 35% of cell death induction, assessed by Annexin V labeling, after 1 h of stimulation with 400 μM of 4N1K (means of six independent experiments))”, the “Cell death induction via CD47” value (HELA) was “+ (more than 35% of cell death induction, assessed by Annexin V labeling, after 1 h of stimulation with 400 μM of 4N1K (means of six independent experiments))” and the “Cell death induction via CD47” value (CEM) was “+ (more than 35% of cell death induction, assessed by Annexin V labeling, after 1 h of stimulation with 400 μM of 4N1K (means of six independent experiments))”. The “Cell death induction via CD47” value (U937) was “+ (more than 35% of cell death induction, assessed by Annexin V labeling, after 1 h of stimulation with 400 μM of 4N1K (means of six independent experiments))”, the “Cell death induction via CD47” value (JM-1) was “+ (more than 35% of cell death induction, assessed by Annexin V labeling, after 1 h of stimulation with 400 μM of 4N1K (means of six independent experiments))” and the “Cell death induction via CD47” value (MDA-MB-231) was “+ (more than 35% of cell death induction, assessed by Annexin V labeling, after 1 h of stimulation with 400 μM of 4N1K (means of six independent experiments))”. The “Cell death induction via CD47” value (OV10) was “+ (more than 35% of cell death induction, assessed by Annexin V labeling, after 1 h of stimulation with 400 μM of 4N1K (means of six independent experiments))”, the “Cell death induction via CD47” value (RPMI 8226) was “+ (more than 35% of cell death induction, assessed by Annexin V labeling, after 1 h of stimulation with 400 μM of 4N1K (means of six independent experiments))” and the “Cell death induction via CD47” value (LNCAP) was “+ (more than 35% of cell death induction, assessed by Annexin V labeling, after 1 h of stimulation with 400 μM of 4N1K (means of six independent experiments))”. The “Cell death induction via CD47” value [4] was “+ (more than 35% of programmed cell death induction via CD47 receptor)”, the “intracellular free Ca2+ mobilization” value [5] was “does not come back to basal level; also recorded: potent and sustained increase of calcium mobilization” and the “Cell death induction via CD47” value (Hepatocellular carcinoma) was “+ (more than 35% of programmed cell death induction via CD47 receptor)”. For the same sequence, the “cytotoxicity in normal B-lymphocytes” value (normal B-lymphocytes) was “not in normal B-lymphocytes”, the “Cell death induction via CD47” value (Follicular lymphoma) was “+ (more than 35% of programmed cell death induction via CD47 receptor)” and the “Cell death induction via CD47” value [6] was “+ (more than 35% of programmed cell death induction via CD47 receptor)”.
